The term melting point denotes the temperature of the solid-liquid transition. In the case of `Cc1cc(F)ccc1-c1ccc(S(=O)(=O)N2c3ccccc3CC2C(=O)NCCOc2ccc(C(=O)O)c(F)c2)cc1` (stereo unspecified), the melting point is 109 to 118 °C.

In turn, `COC(=O)CCC(C)C1CCC2C3=CC=C4C(C)(C)C(O)CCC4(C)C3CCC21C` (stereo unspecified) gave a melting point of 124 to 128 °C.

On to `CCCc1c(C(=O)CO)c2ccc(C(N)=O)cc2n1Cc1ccccc1Cl`, for which the melting point was 231 to 234 °C.

Turning to `Nc1nc2c(ncn2COCCOC=O)c(=O)[nH]1`, the melting point was in the range of 225 to 227 °C.

`C=Nn1nc(NC)n(OCC)c1=O` gave a melting point of 169 °C.

The compound `CCCc1cc(NC(=O)N2CCN(c3cc(F)cc(F)c3)CC2)c(OC)nc1C` returned a melting point of 121 to 123 °C.

As to `O=C1OC[C@H]2[C@@H]1N(Cc1ccccc1)C(=O)N2Cc1ccccc1` (relative stereo), the melting point lay in the range of 106 to 109 °C.

Take `CCc1nc2c(N)nc3ccccc3c2n1CCCCS(=O)(=O)c1ncccn1`: the melting point lay within 172 to 175 °C.

In the case of `CCOc1cc(C(=CC#N)c2ccc(OC)c([N+](=O)[O-])c2)ccc1OC`, the melting point was in the range of 141 to 143 °C.

`Cc1nc(-n2ccn(Cc3ccc(F)cc3)c2=O)sc1C(=O)NCc1cccnc1` yielded a melting point of 158 to 159 °C.

On to `Cc1c(C)c2c(c(C)c1C=O)CC(C)(C)C2`, for which the melting point is 61 to 62 °C.

Compound `Cc1nc(-n2ccc(OCCC3CC3)cc2=O)sc1C(=O)NCc1cccnc1` registered a melting point of 170 to 172 °C.

`CNc1nc(C)c(C(C)=O)s1` returned a melting point of 164 to 165 °C.

Take `COc1ccc2cc(C(=O)CCCCC(=O)N(C)O)ccc2c1`: the melting point lay within 116 to 118 °C.

Turning to `CC(=C1SCCCS1)c1ccc(Sc2ccc(O)cc2)cc1`, the melting point is 113 to 114 °C.

Consider `O=Cc1cn(C(c2ccccc2)(c2ccccc2)c2ccccc2)c(F)n1`, for which the melting point lay in the range of 177 to 179 °C.

The compound `CS(=O)(=O)Cc1ccc2oc([N+](=O)[O-])c(-c3ccccc3)c2c1` came in with a melting point of 178 to 181 °C.

`O=c1nc(-c2cccc(CCCO)n2)sc2ccccc12`: the melting point was determined as 146 °C.

In the case of `Cc1ccc(COc2ccn(Cc3ccccc3)c(=O)c2Br)cc1`, the melting point lay in the range of 149 to 150 °C.

Compound `Cc1ccc(C(=O)c2ccc(F)cc2C)c(F)c1` had a melting point of 29 to 31 °C.

Consider `CC(=O)NCc1ccc(C(C)O)cc1` (stereo unspecified), for which the melting point was 61 to 62 °C.

`CC(=O)C(=CN(C)C)C(=O)c1ccccc1` yielded a melting point of 81 to 83 °C.

In the case of `CCCOc1cc(O)nc(N(C)C)n1`, the melting point lay within 194 to 195 °C.

`Cc1ccc(C(=O)NC(C)NC(=S)Nc2cccc([N+](=O)[O-])c2)cc1` (stereo unspecified): the melting point was in the range of 172 to 175 °C.

In the case of `CC(=O)N(C)c1nc(CN2CCN(C(c3ccccc3)c3ccccc3)CC2)cs1`, the melting point was 140 to 142 °C.

Take `CC(C)(C)OC(=O)Nc1ccc(C#Cc2ccccc2F)cc1N`: the melting point fell in the range of 137 to 139 °C.

Regarding `NS(=O)(=O)c1cc2ccc(O)cc2[nH]1`, the melting point is 194 to 195 °C.

As for `CC(C)(C(N)=O)c1nnc2ccc(OCCCN3CCC(OC(c4ccccc4)c4ccccc4)CC3)nn12`, the melting point was 133 to 136 °C.

As to `Cc1ccc(F)c(NC(=O)c2ccccc2CN2C(=O)C3(COc4cc5c(cc43)CCO5)c3ccccc32)c1` (stereo unspecified), the melting point was 214 to 216 °C.

The compound `Brc1ccc2c(c1)N=C(N1CCSCC1)c1cccc3c1N2CC3` came in with a melting point of 165 to 167 °C.

Turning to `Cn1nc(C(=O)O)c(=O)n(C)c1=O`, the melting point was in the range of 220 to 223 °C.

In turn, `O=C(NNc1ccc(NC(=S)Nc2ccccc2)cc1)c1ccc(Cl)cc1` had a melting point of 198 to 199 °C.

In turn, `COc1ccc(-c2ccnc(-c3ccccc3)c2)cc1F` displayed a melting point of 84 °C.

With `CNS(=O)(=O)N1CCn2c(c(C(N)=O)c(Cl)c2-c2ccccc2)C1`, the melting point is 193 to 196 °C.

Consider `Oc1ccc(-c2nnc(CSCCCOc3ccccc3)o2)cc1`, for which the melting point was in the range of 122 to 127 °C.

`COc1ccc(COc2cccc(C#CC(=O)c3ccccc3)c2)cc1` displayed a melting point of 79 to 80 °C.

In turn, `CC(=O)OC1CSC(Oc2ccc(-c3cc4ccccc4o3)nc2)C(OC(C)=O)C1OC(C)=O` (stereo unspecified) registered a melting point of 179 °C.

As to `CC1(C)NS(=O)(=O)c2cc([N+](=O)[O-])ccc21`, the melting point stood at 187 °C.

`CCCCS(=O)(=O)c1ccc(C(=O)Nc2ccc3cc(CN4CCCC4)cnc3c2C)cc1` came in with a melting point of 210 °C.

Take `COc1ccc(C2=NN(Cc3ccccc3N)C(=O)SC2)cc1OC`: the melting point amounted to 105 °C.

With `CC(=O)ON1C(C)(C)CC(OC(=O)c2ccc(C(=O)OC3CC(C)(C)N(OC(C)=O)C(C)(C)C3)cc2)CC1(C)C`, the melting point is 206 to 212 °C.

The compound `O=C(NCCCc1ccncc1)N(CCC12CC3CC(CC(C3)C1)C2)C1CCCC1` gave a melting point of 136 to 138 °C.

`COc1ccc(-n2cc(C)cc2-c2ccc(S(C)(=O)=O)cc2)cc1` had a melting point of 154 to 160 °C.

`CC(C)[C@]1(CCc2ccc(O)cc2)CC(O)=C(Sc2sc3ccccc3c2C(C)(C)C)C(=O)O1` registered a melting point of 207 °C.

`O=CC(Br)c1ccc(Cl)cc1` (stereo unspecified) had a melting point of 178 °C.

The compound `CN(C)C1(c2ccccc2)CCC(CNC(=O)NCCc2c[nH]c3ccccc23)CC1` (stereo unspecified) yielded a melting point of 159 to 163 °C.

In the case of `Cc1nc(N2CCN(CC(C)C)C2=O)sc1C(N)=O`, the melting point was 212 to 215 °C.

In turn, `NC(=S)c1nccn1Cc1cccs1` came in with a melting point of 152 to 153 °C.

In turn, `CC(Br)(CC(Cl)(Cl)Cl)c1cccc(Cl)n1` (stereo unspecified) yielded a melting point of 42 to 45 °C.

With `O=C1Cc2cc3c(cc2C(c2ccc(F)cc2)=NN1)OCO3`, the melting point lay within 205 to 207 °C.

Regarding `COCCOc1ccc(CCl)c(Oc2ncc(C(F)(F)F)cc2Cl)c1`, the melting point lay within 108 to 111 °C.

`O=C(O)CCc1cccc(C(=O)c2ccccc2)c1` gave a melting point of 70 °C.

`O=C(O)c1ccc(NC(=O)c2ccncc2)cc1` came in with a melting point of 362 to 365 °C.

For `CCOC(=O)COc1ccc(C2OCCCO2)cc1NC(=O)c1ccc(OCCCCc2ccccc2)cc1`, the melting point was 73 °C.

As to `CCC(C)c1ccccc1SC1=C(O)CC(CCc2ccccc2)(c2ccccc2)OC1=O` (stereo unspecified), the melting point fell in the range of 67 to 68 °C.

With `O=C1CC(=O)C2C3C=CC(CC3)C12` (stereo unspecified), the melting point was found to be 264 °C.

As to `O=C(O)c1ccc2oc(-c3ccc(C(F)(F)F)cc3)cc2c1`, the melting point was > 260 °C.

`O=c1ccc2ccc(OCCCN3CCN(c4ccccc4)CC3)cc2o1`: the melting point was in the range of 117 to 118 °C.

Compound `O=C1CCc2sccc21` came in with a melting point of 87 to 88 °C.

In turn, `ON=Cc1ccc(-c2ccc(O)cc2)c(Cl)c1Cl` came in with a melting point of 208 to 210 °C.

For `CCOc1nn(-c2ccc(C(F)(F)F)cn2)cc1CCOc1ccc(CCC(=O)O)c(C)c1`, the melting point lay within 117 to 119 °C.

Consider `Cc1ccc2c(=O)c(C(=O)O)cn(N)c2n1`, for which the melting point is 239 to 240 °C.

`O=C(O)c1cc(N2C(=O)CCC2=O)cc([N+](=O)[O-])c1`: the melting point is 285 to 290 °C.

For `Cc1ncccc1C(C#N)N1CCN(C(=O)CC(NC(=O)c2cccc(OCc3ccc4ccccc4n3)c2)c2ccccc2)CC1` (stereo unspecified), the melting point lay in the range of 101 to 104 °C.

On to `CC1(C)NC(=O)Oc2ccc(OCc3ccccc3)cc21`, for which the melting point turned out to be 134 °C.

With `NC(=O)N1CCN(c2nn(-c3ccccc3F)c3ccccc23)CC1`, the melting point was in the range of 148 to 150 °C.

For `CCOC(=O)COc1ccc(N)c(C)c1`, the melting point lay in the range of 198 to 200 °C.

Take `CCOc1csc2c(=O)c(S(C)=O)cn(C)c12` (stereo unspecified): the melting point fell in the range of 210 to 214 °C.

As to `CC(Oc1ncn(-c2cccc(Br)c2)n1)C(=O)O` (stereo unspecified), the melting point is 198 to 200 °C.

With `CCc1c(CNc2ccc3ccc(C)nc3n2)c(CC)c(CNc2ccc3ccc(C)nc3n2)c(CC)c1CNc1ccc2ccc(C)nc2n1`, the melting point lay within 207 to 208 °C.

Compound `O=C(CC(C(=O)c1ccccc1)C(O)=S)c1ccccc1` (stereo unspecified) came in with a melting point of 142 to 144 °C.

`CC(C)(C)c1ccc(C(=O)Nc2cn3c4c(ccc3n2)OCC4)cn1` showed a melting point of 246 to 248 °C.

On to `CC(C)Oc1cc(CCC(=O)NS(=O)(=O)CCCc2ccccc2)n(Cc2ccc(Cl)cc2Cl)n1`, for which the melting point fell in the range of 132 to 134 °C.

Consider `CCNCCC(=O)N1c2ccccc2CCc2ccc(NC(=O)OCC)cc21`, for which the melting point worked out at 150 °C.

`CCCN1CCCC(NC(=O)C(Cc2ccc(OCc3ccccc3)cc2)NC(=O)C(CC(C)C)N(C)Cc2ccc(N(C)C)cc2)C1` (stereo unspecified) yielded a melting point of 131 to 133 °C.

In the case of `CC(=O)Nc1ccc(-c2c(NC(C)=O)n(C)c3ccccc23)cc1`, the melting point fell in the range of 234 to 237 °C.

Turning to `N#Cc1ccc(C(Cc2ccc(OC(F)(F)F)cc2)Cn2cncn2)cc1` (stereo unspecified), the melting point was 70 °C.

As for `CCCCCCCCCCCCNC(=O)c1cc(-c2cccc(C(F)(F)F)c2)c(OCC(=O)O)c(-c2cccc(C(F)(F)F)c2)c1`, the melting point fell in the range of 154 to 158 °C.

`CC(CCCCCCCCCC(=O)O)CC(=O)O` (stereo unspecified) registered a melting point of 68.5 to 69.5 °C.

Take `COc1cc2cc(CO)nc(-c3ccnc(-n4nc(-c5cccnc5)c5ccccc5c4=O)c3)c2cc1OC`: the melting point was > 250 °C.

For the compound `COc1ccc(N2CCOCC2)c2sc(-c3nc4c([nH]3)CCN(C(C)=O)CC4)nc12`, the melting point lay within 195 to 197 °C.

As to `CCOC(=O)ON(C(N)=O)[C@H]1C[C@@H](c2ccc(F)cc2)C1`, the melting point fell in the range of 124 to 126 °C.

For the compound `CCCCCCCCCCCCOC(=O)c1cc(C(C)(C)C)c(OC(=O)c2cc(C(C)(C)C)c(O)c(C(C)(C)C)c2)c(C(C)(C)C)c1`, the melting point fell in the range of 53 to 56 °C.

In turn, `COc1cccc(CCNC(=S)Nc2nc3ccccc3[nH]2)c1` came in with a melting point of 161 to 167 °C.

`COc1ccc(S(=O)(=O)Oc2cccc(OS(=O)(=O)c3ccc(OC)cc3)c2)cc1`: the melting point lay in the range of 81 to 84 °C.

In the case of `COC(=O)[C@H](Cc1cccc2ccccc12)NC(=O)[C@H](CC(=O)OC(C)(C)C)NC(=O)c1cccc(NC(=O)C(Cc2ccc(C#N)cc2)NC(=O)OC(C)(C)C)c1` (mixture of isomers), the melting point was 182 to 185 °C.
